Source: US20060233870A1, “Compositions and methods for drug delivery” (Noven Pharmaceuticals, Inc., priority 1999, published 2006)
One block for each compound: values may come before it.

Experiments:
[1] = solubility of the drug in the acrylic-based polymer dermal composition

- clonidine flux (increasing amount of hydroxy functional acrylic (DT 87-2287) versus carboxy functional DT 87-2852, FIG. 3, Examples 9-11 and Comparative Example 3 plotted): increases the flux of the clonidine
- solubility of clonidine in the acrylic ([1]; in hydroxy functional acrylic compared with carboxy functional acrylic): lower solubility
SMILES: Clc1cccc(Cl)c1N=C1NCCN1 [clonidine]

SMILES: O=C(CCCN1CCC(O)(c2ccc(Cl)cc2)CC1)c1ccc(F)cc1 [haloperidol]
- cumulative haloperidol flux (increasing amount of non-functional acrylic (HRJ 4483) versus carboxy functional DT 87-2196, FIG. 1, Examples 2 and 4 and Comparative Example 1 plotted): flux of the haloperidol across the skin increases
- solubility of the haloperidol in the dermal composition ([1]; increasing amount of non-functional acrylic in the dermal composition): reduces the solubility of the haloperidol

SMILES: CN1CCCC1c1cccnc1 (centres unmarked) [nicotine]
- nicotine flux (increasing amount of non-functional acrylic (HRJ 4483) versus carboxy functional DT 87-2852, FIG. 2, Examples 5-7 and Comparative Example 2 plotted): increasing flux
